Experiment [1] relates to Well-differentiated adenocarcinoma (NOG-established colon cancer cell line). In words: Histopathology of tumor masses after 5-FU administration, well-differentiated adenocarcinoma transplanted into NOG mice. In kind it is in vivo, human. The settings on record: NOG mice transplanted with an NOG-established colon cancer cell line, after administration of 5-fluorouracil; legend does not name the line. From the text: (§1) The present inventors used NOG-established cancer cell lines that had been established so as to meet the criterion that human colon cancer, stomach cancer, lung cancer, breast cancer, or pancreatic cancer can be transplanted or passaged over three or more generations in NOG mice (Fujii E. et al., Pathol Int. 2008; 58: 559-567). In this Example, NOG-established cancer cell lines were subcutaneously transplanted into NOG mice. 28 days after transplantation, the mice were dissected, and the implants were excised and fixed with 4% paraformaldehyde at 4° C. for 16 to 24 hours. Then, the fixed samples were embedded and sliced into thin section samples by the AMeX method (Fujii E. et al., Pathol Int. 2008; 58: 559-567). The tissues were stained by HE and immunohistochemistry (IHC). Anti-E-cadherin antibody (DakoCytomation) and anti-fibronectin antibody (DakoCytomation) were used as a primary antibody. The visualization was carried out by LSAB method using DAB (DAB Map kit, Roche Diagnostics).
(§2) Each NOG-established cancer cell line whose tissue morphology was (1) well-differentiated adenocarcinoma, (2) moderately-differentiated adenocarcinoma, or (3) poorly-differentiated adenocarcinoma in the donors' human colon cancer were subcutaneously transplanted into NOG mice. […]

The test system of experiment [2] is moderately-differentiated adenocarcinoma (NOG-established colon cancer cell line). As to the kind of experiment: Histopathology of tumor masses after 5-FU administration, moderately-differentiated adenocarcinoma transplanted into NOG mice. In kind it is in vivo, human. The settings on record: NOG mice transplanted with an NOG-established colon cancer cell line, after administration of 5-fluorouracil; legend does not name the line.
Source text: as §1, §2

The source of these data is US20230085803A1, “METHOD FOR SEARCHING AND SCREENING FOR TARGET OF ANTI-CANCER AGENT USING NON-HUMAN ANIMAL MODEL HAVING NOG ESTABLISHED CANCER CELL LINE TRANSPLANTED THEREIN” (CHUGAI SEIYAKU KABUSHIKI KAISHA, priority 2009, published 2023).

Regarding `O=c1[nH]cc(F)c(=O)[nH]1` [5-FU, 5-fluorouracil], the “poorly-differentiated glandular ducts (histopathology, FIG. 13)” value in experiment [1] is reported as “increase”. For the same molecule, the “budding structures (histopathology, FIG. 13)” value in experiment [2] is recorded as “decrease”.
